Measured values published in patent publication US20220323455A1, “FUSED HETEROCYCLIC DERIVATIVES AS ANTIVIRAL AGENTS” (priority 2019, published 2022).

Tested on: HBV
Experiment: HBV replication inhibition assay (BDNA assay) in HepG2.2.15 cells
Format: cell-based, Hepatitis B virus
Conditions: 6 days, encapsidated HBV DNA in supernatant
Outline: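 HepG2.2.15 cells were dosed with serially diluted compound (0.5% DMSO), with compound and medium renewed at day 3. Day-6 supernatants were DNase-treated and proteinase K-lysed, and encapsidated HBV DNA was quantified by branched-DNA assay. Percent inhibition was set against DMSO controls and EC50 obtained by nonlinear fit.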

Row | Structure (SMILES) | EC50
1 | COC(=O)NCC1CCC(F)(F)c2c3c(nn2C1)C[C@@H](C)N(C(=O)Nc1ccnc(C(F)F)c1F)C3 (single isomer, unassigned) [Example 107, Methyl (((3R,8R*)-2-((2-(difluoromethyl)-3-fluoropyridin-4-yl)carbamoyl)-11,11-difluoro-3-methyl-2,3,4,7,8,9,10,11-octahydro-1H-pyrido[4′,3′:3,4]pyrazolo[1,5-a]azepin-8-yl)methyl)carbamate] | 8 nM
2 | COC(=O)NCC1CCC(F)(F)c2c3c(nn2C1)C[C@@H](C)N(C(=O)Nc1ccc(F)c(C#N)c1)C3 (single isomer, unassigned) [Example 108, Methyl (((3R,8S*)-2-((3-cyano-4-fluorophenyl)carbamoyl)-11,11-difluoro-3-methyl-2,3,4,7,8,9,10,11-octahydro-1H-pyrido[4′,3′:3,4]pyrazolo[1,5-a]azepin-8-yl)methyl)carbamate] | 12 nM
3 | COC(=O)NCC1CCC(F)(F)c2c3c(nn2C1)C[C@@H](C)N(C(=O)Nc1ccnc(Br)c1F)C3 (single isomer, unassigned) [Example 109, Methyl (((3R,8S*)-2-((2-bromo-3-fluoropyridin-4-yl)carbamoyl)-11,11-difluoro-3-methyl-2,3,4,7,8,9,10,11-octahydro-1H-pyrido[4′,3′:3,4]pyrazolo[1,5-a]azepin-8-yl)methyl)carbamate] | 32 nM
4 | COC(=O)NCC1CCC(F)(F)c2c3c(nn2C1)C[C@@H](C)N(C(=O)Nc1ccnc(C(F)F)c1F)C3 (single isomer, unassigned) [Example 110, Methyl (((3R,8S*)-2-((2-(difluoromethyl)-3-fluoropyridin-4-yl)carbamoyl)-11,11-difluoro-3-methyl-2,3,4,7,8,9,10,11-octahydro-1H-pyrido[4′,3′:3,4]pyrazolo[1,5-a]azepin-8-yl)methyl)carbamate] | 18 nM
5 | C[C@@H]1Cc2nn3c(c2CN1C(=O)Nc1ccc(F)c(C#N)c1)C(F)(F)CCC(F)(CO)C3 (single isomer, unassigned) [Example 111, (3R,8S*)—N-(3-Cyano-4-fluorophenyl)-8,11,11-trifluoro-8-(hydroxymethyl)-3-methyl-3,4,8,9,10,11-hexahydro-1H-pyrido[4′,3′:3,4]pyrazolo[1,5-a]azepine-2(7H)-carboxamide] | 7 nM
6 | C[C@@H]1Cc2nn3c(c2CN1C(=O)Nc1ccnc(Br)c1F)C(F)(F)CCC(F)(CO)C3 (single isomer, unassigned) [Example 112, (3R,8S*)—N-(2-Bromo-3-fluoropyridin-4-yl)-8,11,11-trifluoro-8-(hydroxymethyl)-3-methyl-3,4,8,9,10,11-hexahydro-1H-pyrido[4′,3′:3,4]pyrazolo[1,5-a]azepine-2(7H)-carboxamide] | 45 nM
7 | C[C@@H]1Cc2nn3c(c2CN1C(=O)Nc1ccnc(C(F)F)c1F)C(F)(F)CCC(F)(CO)C3 (single isomer, unassigned) [Example 113, (3R,8S*)—N-(2-(Difluoromethyl)-3-fluoropyridin-4-yl)-8,11,11-trifluoro-8-(hydroxymethyl)-3-methyl-3,4,8,9,10,11-hexahydro-1H-pyrido[4′,3′:3,4]pyrazolo[1,5-a]azepine-2(7H)-carboxamide] | 154 nM
8 | C[C@@H]1Cc2nn3c(c2CN1C(=O)Nc1ccc(F)c(C#N)c1)C(F)(F)CCC(F)(CO)C3 (single isomer, unassigned) [Example 114, (3R,8R*)—N-(3-Cyano-4-fluorophenyl)-8,11,11-trifluoro-8-(hydroxylmethyl)-3-methyl-3,4,8,9,10,11-hexahydro-1H-pyrido[4′,3′:3,4]pyrazolo[1,5-a]azepine-2(7H)-carboxamide] | 1 nM
9 | C[C@@H]1Cc2nn3c(c2CN1C(=O)Nc1ccnc(Br)c1F)C(F)(F)CCC(F)(CO)C3 (single isomer, unassigned) [Example 115, (3R,8R*)—N-(2-Bromo-3-fluoropyridin-4-yl)-8,11,11-trifluoro-8-(hydroxylmethyl)-3-methyl-3,4,8,9,10,11-hexahydro-1H-pyrido[4′,3′:3,4]pyrazolo[1,5-a]azepine-2(7H)-carboxamide] | 5 nM
10 | C[C@@H]1Cc2nn3c(c2CN1C(=O)Nc1ccnc(C(F)F)c1F)C(F)(F)CCC(F)(CO)C3 (single isomer, unassigned) [Example 116, (3R,8R*)—N-(2-(Difluoromethyl)-3-fluoropyridin-4-yl)-8,11,11-trifluoro-8-(hydroxymethyl)-3-methyl-3,4,8,9,10,11-hexahydro-1H-pyrido[4′,3′:3,4]pyrazolo[1,5-a]azepine-2(7H)-carboxamide] | 10 nM
11 | C[C@@H]1Cc2nn3c(c2CN1C(=O)Nc1ccnc(Br)c1F)C(F)(F)CC(O)CC3 (single isomer, unassigned) [Example 117, (3R,9S*)—N-(2-Bromo-3-fluoropyridin-4-yl)-11,11-difluoro-9-hydroxyl-3-methyl-3,4,8,9,10,11-hexahydro-1H-pyrido[4′,3′:3,4]pyrazolo[1,5-a]azepine-2(7H)-carboxamide] | 18 nM
12 | C[C@@H]1Cc2nn3c(c2CN1C(=O)Nc1ccnc(Br)c1F)C(F)(F)CC(O)CC3 (single isomer, unassigned) [Example 118, (3R,9R*)—N-(2-Bromo-3-fluoropyridin-4-yl)-11,11-difluoro-9-hydroxyl-3-methyl-3,4,8,9,10,11-hexahydro-1H-pyrido[4′,3′:3,4]pyrazolo[1,5-a]azepine-2(7H)-carboxamide] | 3 nM
13 | C[C@@H]1Cc2nn3c(c2CN1C(=O)Nc1ccnc(C(F)F)c1F)C(F)(F)CC(O)CC3 (single isomer, unassigned) [Example 121, (3R,9S*)—N-(2-(Difluoromethyl)-3-fluoropyridin-4-yl)-11,11-difluoro-9-hydroxy-3-methyl-3,4,8,9,10,11-hexahydro-1H-pyrido[4′,3′:3,4]pyrazolo[1,5-a]azepine-2(7H)-carboxamide] | 8 nM
14 | C[C@@H]1Cc2nn3c(c2CN1C(=O)Nc1ccnc(C(F)F)c1F)C(F)(F)CC(O)CC3 (single isomer, unassigned) [Example 122, (3R,9R*)—N-(2-(Difluoromethyl)-3-fluoropyridin-4-yl)-11,11-difluoro-9-hydroxy-3-methyl-3,4,8,9,10,11-hexahydro-1H-pyrido[4′,3′:3,4]pyrazolo[1,5-a]azepine-2(7H)-carboxamide] | 2 nM
15 | C[C@@H]1Cc2nn3c(c2CN1C(=O)Nc1ccnc(Br)c1F)C(F)=CC(O)CC3 (single isomer, unassigned) [Example 124, (3R,9S*)—N-(2-Bromo-3-fluoropyridin-4-yl)-11-fluoro-9-hydroxy-3-methyl-3,4,8,9-tetrahydro-1H-pyrido[4′,3:3,4]pyrazolo[1,5-a]azepine-2(7H)-carboxamide] | 26 nM
16 | C[C@@H]1Cc2nn3c(c2CN1C(=O)Nc1ccc(F)c(C#N)c1)C(F)(F)CC(O)(CO)CC3 (single isomer, unassigned) [Example 125, (3R,9R*)—N-(3-Cyano-4-fluorophenyl)-11,11-difluoro-9-hydroxy-9-(hydroxymethyl)-3-methyl-3,4,8,9,10,11-hexahydro-1H-pyrido[4′,3′:3,4]pyrazolo[1,5-a]azepine-2(7H)-carboxamide] | 14 nM
